Experiments:
[1] = test system: HAS-2 gene (Hyaluronic Acid Synthase-2 gene); assay: Hyaluronic Acid (HA) Synthase expression, GeneChip microarray in keratinocyte culture; assay type: cell-based; conditions: human telomerized keratinocytes, 10 micro molar, 6 hours exposure, six Affymetrix GeneChips, p-value=0.0366
Method: Individual experiments (referred to as batches) are generally comprised of 60 Affymetrix GeneChips® (referred to as “instances”) containing 6 vehicle control samples, 2 positive control samples and 52 individual test material samples. Duplication of test materials is performed across batches. In vitro testing is performed in 6-well plates to provide sufficient RNA for GeneChip® analysis (2-4 ug total RNA yield/well). Human telomerized keratinocytes are grown in EpiLife® media with 1× Human Keratinocyte Growth Supplement (Invitrogen) on collagen I coated cell culture flasks and plates (Becton Dickinson). Cells are seeded into 6-well plates at 20,000 cells/cm2 24 hours before chemical exposure. At t=−24 hours cells are trypsinized from T-75 flasks and plated into 6-well plates in basal growth medium. At t=0 media is removed and replaced with the appropriate dosing solution as per the experimental design. Dosing solutions are prepared the previous day in sterile 4 ml Falcon snap cap tubes. After 6 hours of chemical exposure cells are viewed and imaged. Cells are then lysed with 350 ul/well of RLT buffer containing β-mercaptoethanol (Qiagen), transferred to a 96-well plate, and stored at −20° C. […]
Data quality was determined using a variety of statistical measures, including t-tests, scatter biplots, and principal components analysis, depending upon the source and character of the data. […]

[2] = test system: textured facial skin (upper cheek area); assay: In vivo facial texture test (Texture Area Fraction, split face, vehicle controlled); parameters: species or system human; conditions: vehicle+5% Hexyldecanol, 0.5 g per side of face twice daily, topical, 8 weeks, 330 subjects
Method: A 9 week in vivo study was conducted using a round robin, vehicle controlled, split face design including a 1 week normalization period with 330 subjects.
Treatment Regimen—The regimen begins with a one week washout period. […]
Images of the facial treatment sites are captured at baseline (week 0), and after 4 and 8 weeks of treatment and analyzed for changes to facial texture. […]
The region of interest (ROI), in this case the upper cheek area, was marked manually based on 12 predefined facial landmarks around the cheek—for example, corners of the eye, bridge of the nose, corners of the mouth. The degree of textured skin in the ROI were quantified objectively using image analysis algorithms based on an Optimus software platform, which automatically locates each surface feature and quantifies the total number, length and area of facial features shorter than 5 mm and less than 0.16 mm wide, known magnification used to convert pixel data to actual length and area data. […]

Question: For `CCCCCCCCC(CO)CCCCCC` (centres unmarked) [Hexyldecanol, 2-hexyldecan-1-ol], which “average fold change of transcriptional expression level of HAS-2 probe set IDs” value [1] is on record?
Answer: 1.336 fold change

Question: And the “Texture Area Fraction reduction versus vehicle control” value [2]?
Answer: significantly (p<=0.10) reducing Texture Area Fraction better than the control

Reference: patent publication US20120156146A1, “Compositions and Methods for Improving the Appearance of Facial Texture” (priority 2010, published 2012)
